Measurements reported in ChEMBL document CHEMBL1153808, “Antimalarial benzylisoquinoline alkaloid from the rainforest tree Doryphora sassafras” (J Nat Prod, 2009).

Assays:
HEK293 [1] = test: Cytotoxicity against human HEK293 cells at 120 uM after 72 hrs by Alamar blue assay; type: cell-based; details: hek293, 72 h
in vitro [2] = details: human, HEK293 cells
Description: Selectivity index, ratio of antimicrobial activity against Plasmodium falciparum Dd2 over cytotoxicity against human HEK293 cells

in vitro [3] = details: human, HEK293 cells; remark: listed apart in the source
Description: Selectivity index, ratio of antimicrobial activity against Plasmodium falciparum 3D7 over cytotoxicity against human HEK293 cells

Plasmodium falciparum [4] = test: microbe, parasite or virus in culture; details: 3D7, 72 h
Description: Antimalarial activity against chloroquine-sensitive Plasmodium falciparum 3D7 after 72 hrs by DAPI staining method

Plasmodium falciparum [5] = test: microbe, parasite or virus in culture; details: Dd2, 72 h
Description: Antimalarial activity against chloroquine-resistant Plasmodium falciparum Dd2 after 72 hrs by DAPI staining method

HEK293 [6] = test: Cytotoxicity against human HEK293 cells at 2 uM after 72 hrs by Alamar blue assay; type: cell-based; details: hek293, 72 h

## C[n+]1ccc2cc3c(cc2c1Cc1ccc(O)cc1)OCO3.O=C([O-])C(F)(F)F
HEK293 [1]
  Activity: 0%
In vitro [2]
  selectivity ratio: > 27
In vitro [3]
  selectivity ratio: > 40
Plasmodium falciparum [4]
  IC50: 4.4 µM
Plasmodium falciparum [5]
  IC50: 3 µM

## COc1ccc2c(c1O)-c1c(OC)c(OC)cc3c1[C@H](C2)NCC3.O=C(O)C(F)(F)F
HEK293 [1]
  Activity: 0%
In vitro [2]
  selectivity ratio: > 6
In vitro [3]
  selectivity ratio: > 6
Plasmodium falciparum [4]
  IC50: 19 µM
Plasmodium falciparum [5]
  IC50: 17 µM

## C[C@@H]1CC[C@H]2[C@@H](C)C(=O)O[C@@H]3O[C@@]4(C)CC[C@@H]1[C@]32OO4 [ARTEMISININ]
HEK293 [6]
  Activity: 0%
In vitro [2]
  selectivity ratio: > 100
In vitro [3]
  selectivity ratio: > 100
Plasmodium falciparum [4]
  IC50: 0.021 µM
Plasmodium falciparum [5]
  IC50: 0.021 µM

## CCN(CC)CCCC(C)Nc1ccnc2cc(Cl)ccc12 (stereo unspecified) [CHLOROQUINE]
HEK293 [6]
  Activity: 0%
